Results: patent US7074816B2, “1 2 4-triazole compound” (Fuji Yakuhin Co., Ltd., priority 2002, dated 2006)

Biological target: T1, xanthine oxidase (Rattus norvegicus, UniProt P22985)
T1 construct: administered orally to seven-week-old male Wistar rats (4 rats per group); from tissue; host or cells: whole animal (male Wistar rats); the enzyme is endogenous and was not isolated
Test: Effect of lowering serum uric acid level in vivo (oral, Wistar rats)
Settings: male Wistar rats, blood collected 6 hours after administration
Protocol: Method for Evaluating the Effect of Lowering Serum Uric Acid Level In Vivo
Each of the test compounds was suspended in a 0.5% methylcellulose (MC) aqueous solution and administered orally to seven-week-old male Wistar rats (4 rats per group) compulsorily through a feeding tube at a dose of 0.3 mg/5 ml/kg (1 mg/5 ml/kg for Example 17 and Compound 44 of J. Medicinal Chemistry, (1975) as a control). The blood was collected from the orbital sinus at 6 hours after administration of the test compound. Each blood sample was allowed to clot for one hour and then centrifuged at 2000×g for 10 minutes to obtain serum. The uric acid level in the serum was determined using a kit (Wako Pure Chemicals Industries, Ltd.; phosphotungstic acid method) and a reduction rate of serum uric acid level was calculated by the following formula:
Reduction rate of serum uric acid level=(1-Average serum uric acid level in the group receiving a test compound/Average serum uric acid level in the group receiving MC)×100

[1] = 0.3 mg/5 ml/kg in 0.5% methylcellulose

T1 sequence (P22985 whole entry): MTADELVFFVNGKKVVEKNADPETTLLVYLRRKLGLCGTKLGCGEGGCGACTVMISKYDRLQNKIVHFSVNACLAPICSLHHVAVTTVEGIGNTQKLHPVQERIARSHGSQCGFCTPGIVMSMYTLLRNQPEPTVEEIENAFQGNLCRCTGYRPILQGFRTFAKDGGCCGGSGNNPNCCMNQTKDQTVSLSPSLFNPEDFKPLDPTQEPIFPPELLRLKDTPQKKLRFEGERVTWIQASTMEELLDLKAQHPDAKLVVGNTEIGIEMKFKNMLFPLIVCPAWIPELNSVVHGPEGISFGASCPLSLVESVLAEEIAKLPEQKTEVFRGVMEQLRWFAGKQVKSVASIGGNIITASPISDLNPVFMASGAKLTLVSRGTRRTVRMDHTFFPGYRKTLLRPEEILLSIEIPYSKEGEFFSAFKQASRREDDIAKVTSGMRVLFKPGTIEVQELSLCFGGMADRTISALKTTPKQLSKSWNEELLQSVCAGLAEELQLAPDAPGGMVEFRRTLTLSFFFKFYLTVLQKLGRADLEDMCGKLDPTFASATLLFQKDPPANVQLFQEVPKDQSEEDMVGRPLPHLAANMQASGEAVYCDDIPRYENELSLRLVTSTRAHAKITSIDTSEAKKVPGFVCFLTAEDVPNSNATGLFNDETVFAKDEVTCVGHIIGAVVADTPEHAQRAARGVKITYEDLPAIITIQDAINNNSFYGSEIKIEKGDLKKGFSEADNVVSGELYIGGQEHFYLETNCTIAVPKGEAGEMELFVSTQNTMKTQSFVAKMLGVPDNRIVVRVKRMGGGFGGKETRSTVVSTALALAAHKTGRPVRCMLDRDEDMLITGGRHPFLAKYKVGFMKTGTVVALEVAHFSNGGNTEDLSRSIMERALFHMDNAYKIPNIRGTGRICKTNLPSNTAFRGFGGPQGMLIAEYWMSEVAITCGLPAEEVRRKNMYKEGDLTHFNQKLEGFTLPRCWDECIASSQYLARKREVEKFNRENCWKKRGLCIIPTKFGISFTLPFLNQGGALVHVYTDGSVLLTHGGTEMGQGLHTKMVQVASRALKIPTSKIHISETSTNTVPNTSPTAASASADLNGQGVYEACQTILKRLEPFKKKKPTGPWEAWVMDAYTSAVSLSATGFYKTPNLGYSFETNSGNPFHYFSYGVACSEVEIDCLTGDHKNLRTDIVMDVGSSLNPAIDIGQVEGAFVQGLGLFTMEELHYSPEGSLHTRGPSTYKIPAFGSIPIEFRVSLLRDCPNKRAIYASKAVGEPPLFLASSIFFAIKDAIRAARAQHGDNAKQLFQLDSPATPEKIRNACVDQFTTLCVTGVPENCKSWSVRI

| Compound | Reduction rate of serum uric acid level [1] [%] | Reduction rate of serum uric acid level (1 mg/5 ml/kg in 0.5% methylcellulose) [%] |
| --- | --- | --- |
| Cc1cc(-c2nc(-c3ccc(Sc4ccccc4)c([N+](=O)[O-])c3)n[nH]2)ccn1 [Example 6, 5-(2-methyl-4-pyridyl)-3-(3-nitro-4-phenylthiophenyl)-1,2,4-triazole] | 40.6 |  |
| CSCOc1ccc(-c2n[nH]c(-c3ccnc(C)c3)n2)cc1[N+](=O)[O-] [Example 9, 5-(2-methyl-4-pyridyl)-3-(4-methylthiomethyloxy-3-nitrophenyl)-1,2,4-triazole] | 35.7 |  |
| Cc1cc(-c2nc(-c3ccc(OCSc4ccccc4)c([N+](=O)[O-])c3)n[nH]2)ccn1 [Example 8, 5-(2-methyl-4-pyridyl)-3-(3-nitro-4-phenylthiomethyloxyphenyl)-1,2,4-triazole] | 32.5 |  |
| Cc1cc(-c2nc(-c3ccnc(Cl)c3)n[nH]2)ccn1 [Example 27, 3-(2-chloro-4-pyridyl)-5-(2-methyl-4-pyridyl)-1,2,4-triazole] | 32.9 |  |
| Cc1cc(-c2nc(-c3ccc(SCC(C)C)c([N+](=O)[O-])c3)n[nH]2)ccn1 [Example 7, 3-(4-isobutylthio-3-nitrophenyl)-5-(2-methyl-4-pyridyl)-1,2,4-triazole] | 42.7 |  |
| CC(C)COc1ccc(-c2n[nH]c(-c3ccnc(Cl)c3)n2)cc1[N+](=O)[O-] [Example 17, 5-(2-chloro-4-pyridyl)-3-(4-isobutoxy-3-nitrophenyl)-1,2,4-triazole] |  | 40.6 |
| CC(C)Oc1ccc(-c2nc(-c3ccncc3)n[nH]2)cc1[N+](=O)[O-] [Example 16, 5-(4-isopropoxy-3-nitrophenyl)-3-(4-pyridyl)-1,2,4-triazole] | 36.1 |  |
| C#CCOc1ccc(-c2nc(-c3ccnc(C)c3)n[nH]2)cc1C#N [Example 28, 3-(2-methyl-4-pyridyl)-5-(3-cyano-4-propargyloxyphenyl)-1,2,4-triazole] | 35.3 |  |
| Cc1cc(-c2nc(-c3ccc(OCC4CCCCO4)c([N+](=O)[O-])c3)n[nH]2)ccn1 (centres unmarked) [Example 11, 5-(2-methyl-4-pyridyl)-3-[3-nitro-4-(2-tetrahydropyranylmethyl)oxyphenyl]-1,2,4-triazole] | 41.6 |  |
| N#Cc1cc(-c2n[nH]c(-c3cc[n+]([O-])cc3)n2)ccn1 [Example 35, 3-(2-cyano-4-pyridyl)-5-(1-oxy-4-pyridyl)-1,2,4-triazole] | 46.8 |  |
| COCCOc1ccc(-c2nc(-c3ccnc(C)c3)n[nH]2)cc1C#N [Example 31, 3-(2-methyl-4-pyridyl)-5-(3-cyano-4-methoxyethoxyphenyl)-1,2,4-triazole] | 36.5 |  |
| CC(C)COc1ccc(-c2n[nH]c(-c3ccncc3)n2)cc1C#N [Example 2, 3-(3-cyano-4-isobutoxyphenyl)-5-(4-pyridyl)-1,2,4-triazole] | 62.3 |  |
| CCCCOc1ccc(-c2n[nH]c(-c3ccncc3)n2)cc1[N+](=O)[O-] [Example 15, 3-(4-butoxy-3-nitrophenyl)-5-(4-pyridyl)-1,2,4-triazole] | 41.2 |  |
| Cc1cc(-c2nc(-c3ccnc(C#N)c3)n[nH]2)ccn1 [Example 23, 3-(2-cyano-4-pyridyl)-5-(2-methyl-4-pyridyl)-1,2,4-triazole] | 41.1 |  |
| COCCOCCOCCOc1ccc(-c2nc(-c3ccnc(C)c3)n[nH]2)cc1C#N [Example 33, 3-(2-methyl-4-pyridyl)-5-[3-cyano-4-{(<2-methoxyethoxy>ethoxy)ethoxy}phenyl]-1,2,4-triazole] | 44.7 |  |
| N#Cc1cc(-c2nc(-c3ccncc3)n[nH]2)ccn1 [Example 12, 5-(2-cyano-4-pyridyl)-3-(4-pyridyl)-1,2,4-triazole] | 51.1 |  |

| Compound | Reduction rate of serum uric acid level [1] [%] | Reduction rate of serum uric acid level (1 mg/5 ml/kg in 0.5% methylcellulose) [%] |
| --- | --- | --- |
| COCCOCOc1ccc(-c2n[nH]c(-c3ccnc(C)c3)n2)cc1C#N [Example 3, 3-[3-cyano-4-{(2-methoxy)ethoxymethyl}oxyphenyl]-5-(2-methyl-4-pyridyl)-1,2,4-triazole] | 40.0 |  |
| Cc1cc(-c2n[nH]c(-c3ccc(OCC4CC4)c(C#N)c3)n2)ccn1 [Example 22, 3-(2-methyl-4-pyridyl)-5-(3-cyano-4-cyclopropylmethoxyphenyl)-1,2,4-triazole] | 32.6 |  |
| Cc1cc(-c2nc(-c3ccc(NCC(C)C)c([N+](=O)[O-])c3)n[nH]2)ccn1 [Example 5, 3-(4-isobutylamino-3-nitrophenyl)-5-(2-methyl-4-pyridyl)-1,2,4-triazole] | 39.9 |  |
| N#Cc1cc(-c2n[nH]c(-c3ccnc(Cl)c3)n2)ccn1 [Example 37, 3-(2-cyano-4-pyridyl)-5-(2-chloro-4-pyridyl)-1,2,4-triazole] | 33.6 |  |
| Cc1cc(-c2nc(-c3ccc(N4CCN(C)CC4)c([N+](=O)[O-])c3)n[nH]2)ccn1 [Example 4, 3-[4-(4-methyl-1-piperazino)-3-nitrophenyl]-5-(2-methyl-4-pyridyl)-1,2,4-triazole] | 43.9 |  |
| Cc1cc(-c2nc(-c3ccc(OCC(C)C)c([N+](=O)[O-])c3)nn2COC(=O)C(C)(C)C)ccn1 [Example 14, 3-(4-isobutoxy-3-nitrophenyl)-5-(2-methyl-4-pyridyl)-N-pivaloyloxymethyl-1,2,4-triazole] | 43.0 |  |
| COc1ccc(-c2nc(-c3ccnc(C)c3)n[nH]2)cc1C#N [Example 26, 3-(2-methyl-4-pyridyl)-5-(3-cyano-4-methoxyphenyl)-1,2,4-triazole] | 37.9 |  |
| Cc1cc(-c2nc(-c3ccc(OCOCc4ccccc4)c([N+](=O)[O-])c3)n[nH]2)ccn1 [Example 10, 3-(4-benzyloxymethyloxy-3-nitrophenyl)-5-(2-methyl-4-pyridyl)-1,2,4-triazole] | 41.6 |  |
| COCCOCCOc1ccc(-c2nc(-c3ccnc(C)c3)n[nH]2)cc1C#N [Example 32, 3-(2-methyl-4-pyridyl)-5-[3-cyano-4-{(2-methoxyethoxy)ethoxy}phenyl]-1,2,4-triazole] | 52.0 |  |
| COc1ccc(-c2nc(-c3ccnc(C)c3)n[nH]2)cc1[N+](=O)[O-] [Example 21, 3-(2-methyl-4-pyridyl)-5-(3-nitro-4-methoxyphenyl)-1,2,4-triazole] | 52.9 |  |
| Cc1cc(-c2n[nH]c(-c3ccc(OCCOCCOCCCl)c(C#N)c3)n2)ccn1 [Example 29, 3-(2-methyl-4-pyridyl)-5-[3-cyano-4-{(<2-chloroethoxy>ethoxy)ethoxy}phenyl]-1,2,4-triazole] | 40.7 |  |
| COc1ccc(COc2ccc(-c3nc(-c4ccnc(C)c4)n[nH]3)cc2C#N)cc1 [Example 24, 3-(2-methyl-4-pyridyl)-5-[3-cyano-4-(4-methoxybenzyloxy)phenyl]-1,2,4-triazole] | 38.3 |  |
| Cc1cc(-c2n[nH]c(-c3ccc(OCCC(C)C)c(C#N)c3)n2)ccn1 [Example 25, 3-(2-methyl-4-pyridyl)-5-(3-cyano-4-isopentyloxyphenyl)-1,2,4-triazole] | 47.2 |  |
| Cc1cc(-c2n[nH]c(-c3ccc(OCC(C)C)c(C#N)c3)n2)ccn1 [Example 20, 3-(2-methyl-4-pyridyl)-5-(3-cyano-4-isobutoxyphenyl)-1,2,4-triazole] | 67.5 |  |
| CC(C)COc1ccc(-c2n[nH]c(-c3ccncc3)n2)cc1[N+](=O)[O-] [Example 13, 3-(4-isobutoxy-3-nitrophenyl)-5-(4-pyridyl)-1,2,4-triazole] | 46.8 |  |
| Cc1cc(-c2nc(-c3ccc(OCC(C)C)c([N+](=O)[O-])c3)n[nH]2)ccn1 [Example 1, 3-(4-isobutoxy-3-nitrophenyl)-5-(2-methyl-4-pyridyl)-1,2,4-triazole] | 66.5 |  |
